Several values for one entry are separate records, joined by “and”; a condition that tells them apart may be missing. Equal entries are not always repeated. Toxic doses and inconclusive results are not listed. Cut-off read from the data, not from the text of the source: active = T/C of 150% or more; inactive = T/C below 125%.
Tested on: L1210 leukemia ip in BDF1 mice, survival T/C
Test: NCI In Vivo Anticancer Drug Screen. Data for tumor model L1210 Leukemia (intraperitoneal) in B6D2F1 (BDF1) mice
Conditions: endpoint: mean survival time, higher = longer survival
How it was run: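 Transplanted-tumor mice were given test agent; controls received vehicle only. Survival readings from the two groups were divided (treated over control).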

[1] = dose: 50.0 mg/kg/injection, schedule: Q01DX009 (ip), vehicle: saline
[2] = dose: 100.0 mg/kg/injection, schedule: Q01DX009 (ip), vehicle: saline
[3] = dose: 100.0 mg/kg/injection, schedule: Q04DX002 (ip), vehicle: Klucel (hydroxypropylcellulose) (HPC)
[4] = dose: 200.0 mg/kg/injection, schedule: Q04DX002 (ip), vehicle: Klucel (hydroxypropylcellulose) (HPC)
[5] = dose: 400.0 mg/kg/injection, schedule: Q04DX002 (ip), vehicle: Klucel (hydroxypropylcellulose) (HPC)
[6] = dose: 100.0 mg/kg/injection, schedule: Q01DX001 (ip), vehicle: saline with Tween-80
[7] = dose: 100.0 mg/kg/injection, schedule: Q01DX009 (ip), vehicle: saline with Tween-80
[8] = dose: 100.0 mg/kg/injection, schedule: Q04DX002 (ip), vehicle: saline with Tween-80
[9] = dose: 200.0 mg/kg/injection, schedule: Q01DX001 (ip), vehicle: saline with Tween-80
[10] = dose: 200.0 mg/kg/injection, schedule: Q01DX009 (ip), vehicle: saline with Tween-80
[11] = dose: 200.0 mg/kg/injection, schedule: Q04DX002 (ip), vehicle: saline with Tween-80
[12] = dose: 400.0 mg/kg/injection, schedule: Q01DX001 (ip), vehicle: saline with Tween-80
[13] = dose: 400.0 mg/kg/injection, schedule: Q01DX009 (ip), vehicle: saline with Tween-80
[14] = dose: 400.0 mg/kg/injection, schedule: Q04DX002 (ip), vehicle: saline with Tween-80
[15] = dose: 100.0 mg/kg/injection, schedule: Q01DX001 (ip), vehicle: saline
[16] = dose: 200.0 mg/kg/injection, schedule: Q01DX001 (ip), vehicle: saline
[17] = dose: 100.0 mg/kg/injection, schedule: Q01DX009 (ip), vehicle: Klucel (hydroxypropylcellulose) (HPC)
[18] = dose: 100.0 mg/kg/injection, schedule: Q04DX003 (ip), vehicle: Klucel (hydroxypropylcellulose) (HPC)
[19] = dose: 100.0 mg/kg/injection, schedule: Q01DX001 (ip), vehicle: other
[20] = dose: 200.0 mg/kg/injection, schedule: Q01DX001 (ip), vehicle: other
[21] = dose: 400.0 mg/kg/injection, schedule: Q01DX001 (ip), vehicle: other

Measured: T/C

C=C1C(=O)OC2CC/C=C\CCC12 (configuration not stated)
inactive: [1] 95 % of control | [2] 103 % of control | dose: 200.0 mg/kg/injection, schedule: Q01DX009 (ip), vehicle: saline 95 % of control

CC1N=C(c2ccccc2)C(c2ccccc2)=NC1C (configuration not stated)
inactive: dose: 100.0 mg/kg/injection, schedule: Q04DX003 (ip), vehicle: saline with Tween-80 94 % of control | dose: 200.0 mg/kg/injection, schedule: Q04DX003 (ip), vehicle: saline with Tween-80 101 % of control | dose: 400.0 mg/kg/injection, schedule: Q04DX003 (ip), vehicle: saline with Tween-80 101 % of control

Cn1c(=O)c2c(ncn2CCSCC2=NS(=O)(=O)c3cc(S(N)(=O)=O)c(C(F)(F)F)cc3N2)n(C)c1=O
inactive: dose: 100.0 mg/kg/injection, schedule: Q04DX002 (ip), vehicle: saline 97 % of control | dose: 200.0 mg/kg/injection, schedule: Q04DX002 (ip), vehicle: saline 94 % of control | dose: 400.0 mg/kg/injection, schedule: Q04DX002 (ip), vehicle: saline 94 % of control

COc1ccc(C2Nc3cc(Cl)ccc3NC3=C2C(=O)CC(C)(C)C3)cc1 (configuration not stated)
inactive: [3] 105 % of control | [4] 94 % of control | [5] 102 % of control

CCCCCCCCC(CCCCCCCC)CCC1CCCCC1
inactive: dose: 100.0 mg/kg/injection, schedule: Q01DX001 (ip), vehicle: saline + alcohol 95 % of control | dose: 200.0 mg/kg/injection, schedule: Q01DX001 (ip), vehicle: saline + alcohol 108 % of control | dose: 400.0 mg/kg/injection, schedule: Q01DX001 (ip), vehicle: saline + alcohol 100 % of control

Cc1ccc(N)cc1Cl
inactive: dose: 100.0 mg/kg/injection, schedule: Q04DX003 (ip), vehicle: alcohol 97 % of control | dose: 200.0 mg/kg/injection, schedule: Q04DX003 (ip), vehicle: alcohol 102 % of control | dose: 400.0 mg/kg/injection, schedule: Q04DX003 (ip), vehicle: alcohol 88 % of control

COC(=O)C1(C(=O)OC)C2CC(C)=C(C)CC21 (configuration not stated)
inactive: dose: 25.0 mg/kg/injection, schedule: Q01DX009 (ip), vehicle: saline 109 % of control | [1] 93 % of control | dose: 100.0 mg/kg/injection, schedule: Q01DX009 (ip), vehicle: acetone 90 % of control | [2] 104 % of control | dose: 200.0 mg/kg/injection, schedule: Q01DX009 (ip), vehicle: acetone 94 % of control | dose: 400.0 mg/kg/injection, schedule: Q01DX009 (ip), vehicle: acetone 87 % of control

COc1cccc(NC(=S)Nc2cccc(OC)c2)c1
inactive: [6] 108 % of control | [7] 95 % of control | [8] 91 % of control | [9] 104 % of control | [10] 92 % of control and 100 % of control | [11] 94 % of control and 96 % of control | [12] 101 % of control | [13] 90 % of control | [14] 104 % of control and 88 % of control

Cc1ccccc1N=Nc1c(O)n(-c2ccccc2Cl)c(=S)n(-c2ccccc2)c1=O
inactive: dose: 50.0 mg/kg/injection, schedule: Q01DX001 (ip), vehicle: Klucel (hydroxypropylcellulose) (HPC) 98 % of control | dose: 100.0 mg/kg/injection, schedule: Q01DX001 (ip), vehicle: Klucel (hydroxypropylcellulose) (HPC) 100 % of control | dose: 200.0 mg/kg/injection, schedule: Q01DX001 (ip), vehicle: Klucel (hydroxypropylcellulose) (HPC) 96 % of control

O=C(CC(=O)Oc1ccc(Cl)cc1Cl)Oc1ccc(Cl)cc1Cl
inactive: [7] 93 % of control | [10] 90 % of control | [13] 95 % of control

COc1cc(C)c2ccccc2n1
inactive: [6] 100 % of control | [15] 104 % of control | [9] 102 % of control | [16] 103 % of control | [12] 94 % of control | dose: 400.0 mg/kg/injection, schedule: Q01DX001 (ip), vehicle: saline 98 % of control

O=[N+]([O-])c1cccc(S/N=C/c2ccccc2O)c1
inactive: [3] 102 % of control | [4] 97 % of control | [5] 108 % of control

CCCCCCCCCCCCN(CCC(=O)O)S(=O)(=O)O
inactive: dose: 12.5 mg/kg/injection, schedule: Q04DX003 (ip), vehicle: Klucel (hydroxypropylcellulose) (HPC) 101 % of control | dose: 25.0 mg/kg/injection, schedule: Q01DX009 (ip), vehicle: Klucel (hydroxypropylcellulose) (HPC) 94 % of control | dose: 25.0 mg/kg/injection, schedule: Q04DX003 (ip), vehicle: Klucel (hydroxypropylcellulose) (HPC) 98 % of control | dose: 50.0 mg/kg/injection, schedule: Q01DX009 (ip), vehicle: Klucel (hydroxypropylcellulose) (HPC) 96 % of control | dose: 50.0 mg/kg/injection, schedule: Q04DX003 (ip), vehicle: Klucel (hydroxypropylcellulose) (HPC) 102 % of control | [17] 94 % of control | [18] 97 % of control

O=C(CI)NCc1cn(C2CC(O)C(CO)O2)c(=O)[nH]c1=O (configuration not stated)
inactive: dose: 25.0 mg/kg/injection, schedule: Q01DX005 (ip), vehicle: water 105 % of control | dose: 50.0 mg/kg/injection, schedule: Q01DX005 (ip), vehicle: water 116 % of control | dose: 100.0 mg/kg/injection, schedule: Q01DX005 (ip), vehicle: water 116 % of control

CC1(C)C2CC=C(CCO)C1C2 (configuration not stated)
inactive: [15] 98 % of control | [8] 98 % of control | [16] 93 % of control | [11] 110 % of control | [14] 93 % of control

COc1ccc2c(c1)C1CCCCC1SCC2=O (configuration not stated)
inactive: [19] 100 % of control | [20] 96 % of control | [21] 96 % of control

CC(=O)Nc1ccc(/C=N/NC(=O)COCC(=O)N/N=C/c2ccc(NC(C)=O)cc2)cc1
inactive: [17] 91 % of control | dose: 200.0 mg/kg/injection, schedule: Q01DX009 (ip), vehicle: Klucel (hydroxypropylcellulose) (HPC) 94 % of control | dose: 400.0 mg/kg/injection, schedule: Q01DX009 (ip), vehicle: Klucel (hydroxypropylcellulose) (HPC) 96 % of control

O=C(N/N=C\c1ccc([N+](=O)[O-])cc1)c1ccco1
inactive: [19] 93 % of control | [20] 93 % of control | [21] 93 % of control

Nc1nc(N)c2cc(CCc3ccccc3)ccc2n1
inactive: dose: 50.0 mg/kg/injection, schedule: Q01DX001 (ip), vehicle: carboxymethylcellulose (CMC) 95 % of control | dose: 100.0 mg/kg/injection, schedule: Q01DX001 (ip), vehicle: carboxymethylcellulose (CMC) 95 % of control | [18] 95 % of control | dose: 200.0 mg/kg/injection, schedule: Q01DX001 (ip), vehicle: carboxymethylcellulose (CMC) 101 % of control | dose: 200.0 mg/kg/injection, schedule: Q04DX003 (ip), vehicle: Klucel (hydroxypropylcellulose) (HPC) 90 % of control

— PubChem BioAssay AID248 (DTP/NCI, 2004)
